This note sets out measurements from US20110306636A1, “OXAZOLE PYRIDINE DERIVATIVES USEFUL AS S1P1 RECEPTOR AGONISTS” (Merck Serono SA, priority 2009, published 2011).

Where a name gives a salt, the structure may show the parent alone. Read-outs that look alike come from different tables or passages of the source.

The target of one assay is S1P3 (Homo sapiens, UniProt Q99500). As to the kind of experiment: Receptor binding assay, [33P]sphingosine 1-phosphate competition, S1P3. Here is the method:
(§1) Membranes Preparation: Membranes were prepared from CHO cells expressing S1P1 or S1P3 for use in ligand and 35S-GTPγS binding studies. Cells were suspended in 50 mM TRIS, pH 7.4, 2 mM EDTA, 250 mM Sucrose (buffer A) and 1× Complete protease inhibitor cocktail (Roche), and disrupted at 4° C. by N2 decompression using a cell disruption bomb (Parr Instrument). Following centrifugation at 1000 RPM for 10 min at 4° C., the supernatant was diluted (2×) in buffer A and centrifuged again at 19000 RPM for 75 min at 4° C. The pellet was then suspended in 10 mM HEPES, pH 7.4, 1 mM EDTA, 250 mM Sucrose (Buffer B), and 1× Complete EDTA-free protease inhibitor cocktail and homogenized using a potter. Membranes were flash frozen in liquid N2 and stored at −80° C.
(§2) Receptor binding assay: [33P]sphingosine 1-phosphate (3000 Ci/mmol; American Radiolabeled Chemicals, Inc.) was added to test compounds in 20% DMSO by competition. Membranes and WGA SPA beads (GE Healthcare) were added to give a final volume of 100 μl in 96-well plates or 50 μl in 384-well plates with assay concentrations of 30 pM or 15 pM [33P]sphingosine 1-phosphate (respectively for S1P1 or S1P3), 50 mM HEPES, pH 7.5, 5 mM MgCl2, 100 mM NaCl, 0.4% fatty acid-free BSA, 1-5 μg/well of proteins in 96-well plates vs 0.6-1 μg/well of proteins in 384-well plates and 100 μg/well of WGA SPA beads in 96-well plates vs 75 μg/well of WGA SPA beads in 384-well plates. Binding was performed for 60 min at RT on a shaker and bound radioactivity was measured on a PerkinElmer 1450 MicroBeta counter. Triplicate samples were averaged and normalized as purcentage of inhibition relative to total binding (only DMSO in well) and non specific binding (1000-fold excess of unlabeled S1P). Binding data were analyzed using the GraphPad Prism program or Genedata software.

The target in the next assay is S1P1 (Homo sapiens, UniProt P21453). As to the kind of experiment: Receptor binding assay, [33P]sphingosine 1-phosphate competition, S1P1. Here is the method: as §1, §2
Sequence of S1P1 (P21453 whole entry, species assumed, the tested form may be a part): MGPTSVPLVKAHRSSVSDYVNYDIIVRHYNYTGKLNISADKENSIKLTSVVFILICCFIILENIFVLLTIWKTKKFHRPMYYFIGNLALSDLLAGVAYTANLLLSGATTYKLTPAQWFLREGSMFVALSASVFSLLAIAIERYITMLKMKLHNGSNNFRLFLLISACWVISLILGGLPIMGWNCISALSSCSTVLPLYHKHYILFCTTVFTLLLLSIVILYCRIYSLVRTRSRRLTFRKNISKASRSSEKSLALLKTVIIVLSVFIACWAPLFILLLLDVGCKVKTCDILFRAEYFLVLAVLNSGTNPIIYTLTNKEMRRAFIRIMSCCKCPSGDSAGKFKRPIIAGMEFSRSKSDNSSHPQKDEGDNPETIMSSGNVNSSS
Assay [1] addresses T1, human S1P1 Receptor fused to the green fluorescent protein (EGFP) (Homo sapiens, UniProt P21453).
T1 construct: host or cells: U2OS (human bone osteosarcoma epithelial cells), CMV promoter, geneticin selection
As to the kind of experiment: Internalization of S1P1 in S1P1-U2OS cells by cell imaging analysis. The class given is cell-based. The settings on record: 1 hour incubation, 384-well. Here is the method:
Cellular Functional Assays: Internalization of Sphingosine-1-Phosphate Receptor 1 (S1P1) in a Human Cell Line (U2OS) in a 384-Well Format Using a Cell Imaging Analysis.
The S1P1 internalization assay was performed in 384 well plates (Corning® 384 black with clear bottom 3712) using S1P1-U2OS cells from BioImage (C039A), a human epithelial cell line (Human Bone Osteosarcoma Epithelial Cells). These cells expressed the human S1P1 Receptor fused to the green fluorescent protein (EGFP). A standard CMV promoter (cytomegalovirus promoter) controls the expression of S1P1-EGFP and continuous expression was maintained by addition of geneticin to the culture medium.
S1P1 Receptor desensitization induced the internalization of the membrane-localized S1P1-EGFP fusion protein to endosomes, which can be monitored by cell imaging analysis.
The cells are plated in low serum medium (Dulbecco's Modified Eagle Medium (DMEM) with Glutamax-1 and high glucose, 1% Penicillin/Streptomycin, 1% Fetal Calf Serum (FCS), 0.5 mg/ml Geneticin) overnight.
The next day, S1P1-U2OS cells are incubated in 20 μl serum free medium (DMEM with Glutamax-1 and high glucose, 0.1% of fatty-acid free Bovin Serum Albumin (BSA), 10 mM, N′-2-Hydroxyethylpiperazine-N′-2 ethanesulphonic acid (HEPES) 1M) for 2 hours at 37° C./5% CO2.
The cells are then treated with 4 μl compounds/agonists (6×/3% DMSO) for a total volume of 24 μl, and plates are incubated for 1 hour at 37° C./5% CO2.
S1P1-U2OS cells are fixed with 25 μl Paraformaldehyde 8% and stained with Hoechst 33345 dye (1:1000) for 20 minutes.
They were then washed 3 times with Phosphate Buffered Saline (PBS) and plates are sealed.
The internalization of the receptor S1P1-EGFP is measured on Cellomics by calculating the “spot count per object” (“object” corresponds to nuclear and “spot” corresponds to S1P1-EGFP receptor). Internalization data were observed thanks to vHCS View and analyzed using Genedata® software.

Where [2] appears, read: 96 well-plate, read-out: S1P3 binding IC50 (M) (96 well-plate).
Setting [3] is: 384 well-plate, read-out: S1P3 binding IC50 (M) (384 well-plate).
The mark [4] stands for this setting: 96 well-plate, read-out: S1P1 binding IC50 (M) (96 well-plate).
Setting [5] is: 384 well-plate, read-out: S1P1 binding IC50 (M) (384 well-plate).

T1 sequence (P21453 with tags, fused parts or gaps): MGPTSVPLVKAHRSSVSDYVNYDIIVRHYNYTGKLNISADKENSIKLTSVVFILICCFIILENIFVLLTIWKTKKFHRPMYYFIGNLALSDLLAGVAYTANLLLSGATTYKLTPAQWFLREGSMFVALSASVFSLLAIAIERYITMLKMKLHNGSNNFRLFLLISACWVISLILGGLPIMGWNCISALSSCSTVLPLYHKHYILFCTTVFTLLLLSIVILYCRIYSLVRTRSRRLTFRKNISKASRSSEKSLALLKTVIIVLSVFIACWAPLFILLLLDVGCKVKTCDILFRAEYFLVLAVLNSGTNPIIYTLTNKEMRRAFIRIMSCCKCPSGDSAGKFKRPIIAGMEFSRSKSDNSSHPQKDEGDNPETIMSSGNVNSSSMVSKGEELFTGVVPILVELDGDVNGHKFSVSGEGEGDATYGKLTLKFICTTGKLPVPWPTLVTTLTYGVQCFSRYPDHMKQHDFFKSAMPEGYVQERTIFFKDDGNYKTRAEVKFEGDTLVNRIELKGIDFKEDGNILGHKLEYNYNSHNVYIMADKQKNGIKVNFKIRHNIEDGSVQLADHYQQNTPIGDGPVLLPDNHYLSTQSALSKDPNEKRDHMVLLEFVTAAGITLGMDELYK
Sequence of S1P3 (Q99500 whole entry, species assumed): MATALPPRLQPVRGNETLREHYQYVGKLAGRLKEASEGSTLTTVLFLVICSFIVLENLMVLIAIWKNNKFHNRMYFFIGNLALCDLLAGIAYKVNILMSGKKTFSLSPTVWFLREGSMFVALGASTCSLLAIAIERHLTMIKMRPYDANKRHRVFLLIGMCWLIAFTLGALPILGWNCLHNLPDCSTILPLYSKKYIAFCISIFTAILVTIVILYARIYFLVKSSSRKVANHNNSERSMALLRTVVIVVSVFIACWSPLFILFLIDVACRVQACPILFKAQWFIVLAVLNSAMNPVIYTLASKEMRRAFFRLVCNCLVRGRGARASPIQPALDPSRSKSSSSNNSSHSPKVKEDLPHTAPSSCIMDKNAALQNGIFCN

Broadly, the IC50 is the midpoint of a concentration-inhibition curve. In general, EC50 refers to the concentration that produces a half-maximal response. Regarding `COCc1cc(-c2nc(-c3cnc(NCCC(=O)O)c(C)c3)no2)ccc1-c1ccccc1C` [Example 58, N-(5-{5-[2-(methoxymethyl)-2′-methylbiphenyl-4-yl]-1,2,4-oxadiazol-3-yl}-3-methylpyridin-2-yl)-beta-alanine, hydrochloride salt], the IC50 amounted to 9.3e-06 M on S1P3 (setting [2]), 5.26e-06 M on S1P3 (setting [3]), 2.94e-09 M on S1P1 (setting [4]) and 2.48e-08 M on S1P1 (setting [5]). For the same compound, the EC50 in assay [1] stood at 0.0455 µM.

As for `COCc1cc(-c2nc(-c3cnc(NCCCC(=O)O)c(C)c3)no2)ccc1-c1ccccc1C` [Example 57, 4-[(5-{5-[2-(methoxymethyl)-2′-methylbiphenyl-4-yl]-1,2,4-oxadiazol-3-yl}-3-methylpyridin-2-yl)amino]butanoic acid, hydrochloride salt], the IC50 on S1P3 (setting [2]) is 7.44e-06 M; at S1P3 (setting [3]) it was 8.67e-06 M; at S1P1 (setting [4]), 5.6e-09 M. In assay [1], the EC50 was 0.0814 µM.

As to `CCOc1cc(-c2nc(-c3cnc(NCCC(=O)O)c(Cl)c3)no2)ccc1-c1ccccc1C(F)(F)F` [Example 71, N-(3-chloro-5-{5-[2-ethoxy-2′-(trifluoromethyl)biphenyl-4-yl]-1,2,4-oxadiazol-3-yl}pyridin-2-yl)-beta-alanine, hydrochloride salt], the IC50 worked out at 5.75e-06 M at S1P3 (setting [2]), 8.92e-06 M at S1P3 (setting [3]) and 3.4e-09 M at S1P1 (setting [5]). In assay [1], this compound displayed an EC50 of 0.0213 µM.

On to `CCc1ccccc1-c1ccc(-c2nc(-c3cnc(N)c(Cl)c3)no2)cc1COC` [Example 43, 3-chloro-5-{5-[2′-ethyl-2-(methoxymethyl)biphenyl-4-yl]-1,2,4-oxadiazol-3-yl}pyridin-2-amine], for which the results for the IC50 on S1P3 (setting [2]), at S1P1 (setting [4]) and at S1P1 (setting [5]) were 1.12e-05 M, 2.44e-09 M and 4.1e-08 M, respectively. In assay [1], this compound came in with an EC50 of 0.0335 µM.

Consider `COCc1cc(-c2nc(-c3cnc(NCCC(=O)O)c(Cl)c3)no2)ccc1-c1ccccc1F` [Example 48, N-(3-chloro-5-{5-[2′-fluoro-2-(methoxymethyl)biphenyl-4-yl]-1,2,4-oxadiazol-3-yl}pyridin-2-yl)-beta-alanine, hydrochloride salt], for which the IC50 turned out to be 1.37e-06 M on S1P3 (setting [2]) and 3.15e-09 M at S1P1 (setting [4]). Moreover, the midpoint of the response in assay [1], the EC50, lay at 0.0287 µM.

With `COCc1cc(-c2nc(-c3cnc(Cl)c(F)c3)no2)ccc1-c1ccccc1C` [Example 60, 2-chloro-3-fluoro-5-{5-[2-(methoxymethyl)-2′-methylbiphenyl-4-yl]-1,2,4-oxadiazol-3-yl}pyridine], the IC50 at S1P3 (setting [2]) was 6.53e-06 M; at S1P3 (setting [3]), 3e-06 M; on S1P1 (setting [4]), 2.83e-09 M; at S1P1 (setting [5]) it was 4.34e-09 M. The EC50 in assay [1] turned out to be 0.0195 µM.

Turning to `COCc1cc(-c2nc(-c3cnc(NCCCC(=O)O)c(C)c3)no2)ccc1-c1ccccc1F` [Example 55, 4-[(5-{5-[2′-fluoro-2-(methoxymethyl)biphenyl-4-yl]-1,2,4-oxadiazol-3-yl}-3-methylpyridin-2-yl)amino]butanoic acid, hydrochloride salt], the values for the IC50 at S1P3 (setting [2]), on S1P3 (setting [3]) and at S1P1 (setting [4]) were 2.82e-06 M, 3.39e-06 M and 6.02e-09 M, respectively. Also, the 50% effective concentration (EC50) in assay [1] worked out at 0.0645 µM.

`CC1CCCCN1c1ccc(-c2nc(-c3ccnc(CN(C)CCC(=O)O)c3)no2)cc1C(F)(F)F` (stereo not shown) [Example 67, 3-(methyl((4-(5-(4-(2-methylpiperidin-1-yl)-3-(trifluoromethyl)phenyl)-1,2,4-oxadiazol-3-yl)pyridin-2-yl)methyl)amino)propanoic acid]: the IC50 came out at 1.41e-07 M at S1P3 (setting [2]), 4.68e-07 M on S1P3 (setting [3]) and 1.2e-09 M on S1P1 (setting [4]). Also, the EC50 in assay [1] was determined as 0.0142 µM.

For the compound `Cc1ccccc1-c1ccc(-c2nc(-c3ccnc(CN(C)CC(=O)O)c3)no2)cc1C(F)(F)F` [Example 75, 2-(((4-(5-(2-(trifluoromethyl)-2′-methylbiphenyl-4-yl)-1,2,4-oxadiazol-3-yl)pyridin-2-yl)methyl)(methyl)amino)acetic acid], the IC50 at S1P3 (setting [3]) is 2.26e-06 M; on S1P1 (setting [5]), 9.46e-09 M. This compound also gave an EC50 in assay [1] of 0.0152 µM.

Take `COCc1cc(-c2nc(-c3cnc(NCCC(=O)O)c(C)c3)no2)ccc1-c1ccccc1F` [Example 53, N-(5-{5-[2′-fluoro-2-(methoxymethyl)biphenyl-4-yl]-1,2,4-oxadiazol-3-yl}-3-methylpyridin-2-yl)-beta-alanine, hydrochloride salt]: the IC50 at S1P3 (setting [2]) came out at 3.1e-06 M; at S1P1 (setting [4]), 6.38e-09 M. In assay [1], this compound displayed a 50% effective concentration (EC50) of 0.0992 µM.

On to `O=C(O)CCNc1ncc(-c2noc(-c3ccc(-c4ccccc4F)c(C(F)(F)F)c3)n2)cc1Cl` [Example 63, N-(3-chloro-5-{5-[2′-fluoro-2-(trifluoromethyl)biphenyl-4-yl]-1,2,4-oxadiazol-3-yl}pyridin-2-yl)-beta-alanine], for which the results for the IC50 on S1P3 (setting [2]), on S1P1 (setting [4]) and at S1P1 (setting [5]) were 3.87e-06 M, 5.4e-09 M and 1.73e-08 M, respectively. In addition, the EC50 in assay [1] was found to be 0.05 µM.

For the compound `COCc1cc(-c2nc(-c3cnc(NCCC(=O)O)c(Cl)c3)no2)ccc1-c1ccccc1Cl` [Example 50, N-(3-chloro-5-{5-[2′-chloro-2-(methoxymethyl)biphenyl-4-yl]-1,2,4-oxadiazol-3-yl}pyridin-2-yl)-beta-alanine, hydrochloride salt], the IC50 was 5.82e-06 M on S1P3 (setting [2]), 9.45e-06 M on S1P3 (setting [3]), 1.58e-09 M at S1P1 (setting [4]) and 1.98e-08 M on S1P1 (setting [5]). The compound also showed a 50% effective concentration (EC50) in assay [1] of 0.0173 µM.

Consider `Cc1ccccc1-c1ccc(-c2nc(-c3cnc(NCCC(=O)O)c(C)c3)no2)cc1C(F)(F)F` [Example 59, N-(3-methyl-5-{5-[2′-methyl-2-(trifluoromethyl)biphenyl-4-yl]-1,2,4-oxadiazol-3-yl}pyridin-2-yl)-beta-alanine, hydrochloride salt], for which the IC50 on S1P3 (setting [2]) amounted to 2e-05 M; at S1P1 (setting [4]), 1.04e-08 M; at S1P1 (setting [5]), 4.56e-08 M. Moreover, in assay [1], the response was half-maximal at 0.156 µM (EC50).

In the case of `COCc1cc(-c2nc(-c3ccnc(CNCC(=O)O)c3)no2)ccc1-c1ccccc1C` [Example 69, 2-((4-(5-(2-(methoxymethyl)-2′-methylbiphenyl-4-yl)-1,2,4-oxadiazol-3-yl)pyridin-2-yl)methylamino)acetic acid], the half-inhibitory concentration (IC50) came out at 1.7e-07 M on S1P3 (setting [2]), 1.62e-07 M at S1P3 (setting [3]), 2.6e-09 M at S1P1 (setting [4]) and 3.19e-09 M at S1P1 (setting [5]). For the same compound, a half-maximal response in assay [1] (EC50) required 0.0092 µM.

Consider `COCc1cc(-c2nc(-c3ccc(NCCCCO)nc3)no2)ccc1-c1ccccc1C` [Example 51, 4-[(5-{5-[2-(methoxymethyl)-2′-methylbiphenyl-4-yl]-1,2,4-oxadiazol-3-yl}pyridin-2-yl)amino]butan-1-ol, hydrochloride salt], for which the IC50 on S1P3 (setting [2]) was determined as 1.79e-05 M; at S1P3 (setting [3]) it was 2e-05 M; on S1P1 (setting [4]), 1.05e-08 M. This compound also had an EC50 in assay [1] of 0.0853 µM.
